Patent US20130029981A1, “COMPOUNDS, COMPOSITIONS, AND METHODS FOR CONTROLLING BIOFILMS” (Katholieke Universiteit Leuven, priority 2009, published 2013)
pIC50: −log10 of the molar value. Like-named read-outs stand apart in the source and are kept apart here.

Key:
S. Typhimurium ATCC14028 = assay: Static peg assay for prevention of biofilm formation (Calgary device, crystal violet); format: cell-based, Salmonella Typhimurium
In short: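 Calgary 96-peg device, ca. 10^6 cells of ATCC14028 per well in TSB 1/20 for 24 h at 25° C (or 48 h at 16° C, medium and compound renewed at 24 h), or in CFA broth for 24 h at 37° C, static, with two-fold compound dilutions. Crystal violet stain, acetic acid extraction, OD570. IC50 from 2–3 independent experiments.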

[1] = tested on: Pseudomonas aeruginosa PA14; assay: as above; format: cell-based
Description: (§1) Evaluation of the biofilm inhibitory activity of some substituted 2-amino-1H-imidazoles of the invention was carried out by growing up biofilms of S. Typhimurium ATCC14028 or SL1344 or Pseudomonas aeruginosa PA14 in the presence of different concentrations (1/2 dilution series) of biofilm inhibitors, by using the Calgary biofilm device. After an incubation period of 24 hours at 25° C. or 37° C. or 48 hours at 16° C. the biofilms were visualized by crystal violet staining. In the next step the stain was extracted from the biofilm with 30% acetic acid. The absorbance of the resolubilized stain at 570 nm is a measure of the amount of biofilm formed.
The device used for Pseudomonas aeruginosa biofilm formation is the same platform carrying polystyrene pegs as described above for Salmonella Typhimurium.
Two-fold serial dilutions of the compounds in 100 μl liquid broth per well were prepared in the microtiter plate. Subsequently, an overnight culture of P. aeruginosa PA14 (grown up in TSB medium) was diluted 1:100 into liquid broth and 100 μl was added to each well of the microtiter plates, resulting in a total amount of 200 μl medium per well. The pegged lid was placed on the microtiter plate and the plate was incubated for 24 hours at 25° C., 30° C. or 37° C. without shaking. During this incubation period biofilms were formed on the surface of the pegs. The liquid broth used for the tests at 25° C. was TSB 1/20. The tests at 37° C. were performed in CFA and/or LBNS broth. During incubation at 30° C. and 37° C. the plates were placed in a humidity controlled container to prevent evaporation of the growth medium. Quantification of biofilm formation was performed similarly as described previously for the S. Typhimurium biofilm assays.
as §1, with “imidazo[1,2-a]pyrimidinium bromide salts” for “2-amino-1H-imidazoles”
as §1, with “substituted imidazo[1,2-a]-pyrimidinium bromide and perchlorate salts produced according to examples 3 and 5” for “substituted 2-amino-1H-imidazoles of the invention”, “C.” for “C. or 37° C. or 48 hours at 16° C.”, “nm was taken as” for “nm is”

[2] = Salmonella enterica, 24 h, read-out: (1) IC50 (biofilm inhibition)
[3] = Pseudomonas aeruginosa, PA14, 24 h, read-out: (2) IC50 (biofilm inhibition)
[4] = 25° C., Table 16, read-out: S. Typhimurium IC50 (biofilm formation)
[5] = 25° C., Table 16, read-out: P. aeruginosa IC50 (biofilm formation)
[6] = 25° C., 24 hours, Table 15, read-out: (1) IC50 (biofilm inhibition)
[7] = 25° C., 24 hours, Table 15, read-out: (2) IC50 (biofilm inhibition)
[8] = 25° C., Table 17, read-out: S. Typhimurium IC50 (biofilm formation)
[9] = 25° C., Table 17, read-out: P. aeruginosa IC50 (biofilm formation)
[10] = 25° C., Table 18, read-out: S. Typhimurium IC50 (biofilm formation)
[11] = 25° C., Table 18, read-out: P. aeruginosa IC50 (biofilm formation)

Structure (SMILES) | pIC50 (S. Typhimurium ATCC14028; [4]) | pIC50 [1, 5] | pIC50 (S. Typhimurium ATCC14028; [6]) | pIC50 [1, 7] | also measured
CCCCCCCC[n+]1c(-c2ccc(F)cc2)cn2cccnc21.[O-][Cl+3]([O-])([O-])[O-] [2-(4-Fluorophenyl)-1-octylimidazo[1,2-a]pyrimidin-1-ium perchlorate] |  |  |  |  | pIC50 (S. Typhimurium ATCC14028; [2]): 4.45; pIC50 [1, 3]: 4.71
CCCCCCCC[n+]1c(-c2ccc(OC)cc2)cn2cccnc21.[O-][Cl+3]([O-])([O-])[O-] [2-(4-Methoxyphenyl)-1-octylimidazo[1,2-a]pyrimidin-1-ium perchlorate] |  |  |  |  | pIC50 (S. Typhimurium ATCC14028; [2]): 4.46; pIC50 [1, 3]: 5.06
CCCCCCCC[n+]1c(-c2ccc(SC)cc2)cn2cccnc21.[O-][Cl+3]([O-])([O-])[O-] [2-(4-Methylthiophenyl)-1-octylimidazo[1,2-a]pyrimidin-1-ium perchlorate] |  |  |  |  | pIC50 (S. Typhimurium ATCC14028; [2]): 4.69; pIC50 [1, 3]: 5.03
CCCCN1c2nccc[n+]2CC1(O)c1ccc([N+](=O)[O-])cc1 (centres unmarked) [Compound 31] | 3.53 | 3.84 |  |  | 
CC(C)CN1c2nccc[n+]2CC1(O)c1ccc([N+](=O)[O-])cc1 (centres unmarked) [Compound 32] | 3.49 | 3.72 |  |  | 
CC(C)(C)N1c2nccc[n+]2CC1(O)c1ccc([N+](=O)[O-])cc1 (centres unmarked) [Compound 33] | 3.68 | 4.38 |  |  | 
CCCCCCCCN1c2nccc[n+]2CC1(O)c1ccc([N+](=O)[O-])cc1 (centres unmarked) [Compound 35] | 5.18 | 4.71 | 5.18 | 5.12 | 
CCCCCCCCCCN1c2nccc[n+]2CC1(O)c1ccc([N+](=O)[O-])cc1 (centres unmarked) [Compound 36] | 5.00 | 4.65 | 5.00 |  | 
CCCCCCCCN1c2nccc[n+]2CC1(O)c1ccc(F)cc1 (centres unmarked) [Compound 39] | 5.12 | 3.97 | 5.12 | 5.15 | 
CCCCCCCCN1c2nccc[n+]2CC1(O)c1ccc(OC)cc1 (centres unmarked) [Compound 46] | 4.98 | 4.04 | 4.98 | 4.87 | 
CCCCCCCCN1c2nccc[n+]2CC1(O)c1ccc(Cl)c(Cl)c1 (centres unmarked) [Compound 49] | 5.15 | 4.94 | 5.15 | ~4.91 | 
CCCCCCCCN1c2nccc[n+]2CC1(O)c1ccc(SC)cc1 (centres unmarked) [Compound 51] |  |  | ~4.88 | 4.54 | pIC50 (S. Typhimurium ATCC14028; [8]): ~4.88; pIC50 [1, 9]: 4.44
CCCCCCCCN1c2nccc[n+]2C[C@@]1(O)c1cccc2ccccc12 [Compound 52] |  |  |  |  | pIC50 (S. Typhimurium ATCC14028; Salmonella enterica, 25° C., 24 hours, Table 15, read-out: (1) IC50 (biofilm inhibition)): 4.83; pIC50 (S. Typhimurium ATCC14028; Salmonella enterica, 25° C., Table 17, read-out: S. Typhimurium IC50 (biofilm formation)): 4.83; pIC50 ([1]; Pseudomonas aeruginosa, PA14, 25° C., Table 17, read-out: P. aeruginosa IC50 (biofilm formation)): 4.82; pIC50 ([1]; Pseudomonas aeruginosa, PA14, 24 h, 25° C., 24 hours, Table 15, read-out: (2) IC50 (biofilm inhibition)): 4.78
CCCCCCCCN1c2nccc[n+]2CC1(O)c1ccc(-c2ccc([N+](=O)[O-])cc2)cc1 (centres unmarked) [Compound 53] |  |  | 4.51 | 3.93 | pIC50 (S. Typhimurium ATCC14028; [8]): 4.51; pIC50 [1, 9]: 3.67
CCCCCCCCN1c2nccc[n+]2CC1(O)c1ccc(S(C)(=O)=O)cc1 (centres unmarked) [Compound 54] |  |  | 4.22 | 4.94 | pIC50 (S. Typhimurium ATCC14028; [8]): 4.22; pIC50 [1, 9]: 4.00
CCCCCCCCN1c2nccc[n+]2CC1(O)c1ccc(-c2ccc(-c3ccccc3)cc2)cc1 (centres unmarked) [Compound 55] |  |  | ~4.28 | 4.57 | pIC50 (S. Typhimurium ATCC14028; [8]): ~4.28; pIC50 [1, 9]: 3.47
CCCCCCCCN1c2nccc[n+]2CC1(O)c1cccc(Br)c1 (centres unmarked) [Compound 56] |  |  | 5.15 | ~4.88 | pIC50 (S. Typhimurium ATCC14028; [8]): 5.15; pIC50 [1, 9]: 4.54
OC1(c2ccccc2)C[n+]2cccnc2N1C1CCC1 (centres unmarked) [Compound 57] |  |  |  |  | pIC50 (S. Typhimurium ATCC14028; [10]): 3.31; pIC50 [1, 11]: < 3.40
OC1(c2ccccc2)C[n+]2cccnc2N1C1CCCCC1 (centres unmarked) [Compound 58] |  |  |  |  | pIC50 (S. Typhimurium ATCC14028; [10]): 3.86; pIC50 [1, 11]: 4.06
OC1(c2ccccc2)C[n+]2cccnc2N1C1CCCCCC1 (centres unmarked) [Compound 59] |  |  | 4.07 | 5.24 | pIC50 (S. Typhimurium ATCC14028; [10]): 4.07; pIC50 [1, 11]: 3.60
OC1(c2ccccc2)C[n+]2cccnc2N1C1CCCCCCC1 (centres unmarked) [Compound 60] |  |  | 4.23 | 5.33 | pIC50 (S. Typhimurium ATCC14028; [10]): 4.23; pIC50 [1, 11]: 3.75
OC1(c2ccc(Cl)cc2)C[n+]2cccnc2N1C1CCC1 (centres unmarked) [Compound 62] |  |  |  |  | pIC50 (S. Typhimurium ATCC14028; [10]): 3.92; pIC50 [1, 11]: 3.43
OC1(c2ccc(Cl)cc2)C[n+]2cccnc2N1C1CCCC1 (centres unmarked) [Compound 63] |  |  |  |  | pIC50 (S. Typhimurium ATCC14028; [10]): 4.38; pIC50 [1, 11]: 3.79
